{"source": "patent US20020052491A1", "about": "“Method for the production of 2-chloro-2' -deoxyadenosine (cladribine) and its 3,5-di-O-p-toluoyl derivative” (priority 1999, published 2002)", "key": {"[1]": {"test_system": "Epstein Barr B lymphoblastoid cell lines", "assay": "in vitro sensitivity, Epstein Barr B lymphoblastoid cell lines", "type": "cell-based", "settings": "50% growth inhibition, no source mark printed, read-out: IC50 (nmol/L)**", "text": "(§1) The in vitro effect of cladribine (2-CdA) has been studied on a number of cell lines, showing different degrees of sensitivity, represented by the IC50 value (concentration required to inhibit 50% of growth) on a case-by-case basis."}, "DAUDI cell line": {"test_system": "DAUDI cell line", "assay": "in vitro sensitivity, DAUDI cell line", "type": "cell-based", "settings": "Homo sapiens, 50% growth inhibition, Data Bio Sidus, read-out: IC50 (nmol/L)**", "text": "as §1"}, "[2]": {"test_system": "Acute lymphoblastic leukemia", "settings": "drug concentration required to inhibit 50% of growth, read-out: IC50 (nmol/L)**; cited from earlier work"}, "[3]": {"test_system": "Acute myelogenous leukemia", "settings": "50% growth inhibition, read-out: IC50 (nmol/L)**; cited from earlier work"}, "[4]": {"test_system": "Chronic lymphocytic leukemia", "settings": "50% growth inhibition, read-out: IC50 (nmol/L)**; cited from earlier work"}, "Hairy cell leukemia": {"test_system": "Hairy cell leukemia", "settings": "50% growth inhibition, read-out: IC50 (nmol/L)**; cited from earlier work"}, "Multiple myeloma cells": {"test_system": "Multiple myeloma cells", "settings": "cited from earlier work"}, "Non-Hodgkin's lymphoma": {"test_system": "Non-Hodgkin's lymphoma", "settings": "50% growth inhibition, read-out: IC50 (nmol/L)**; cited from earlier work"}, "T cells": {"test_system": "T cells", "settings": "50% growth inhibition, read-out: IC50 (nmol/L)**; cited from earlier work"}, "B cells": {"test_system": "B cells", "settings": "50% growth inhibition, read-out: IC50 (nmol/L)**; cited from earlier work"}, "Normal bone marrow": {"test_system": "Normal bone marrow", "settings": "cited from earlier work"}, "myeloid cells": {"test_system": "myeloid cells", "settings": "cited from earlier work"}, "[5]": {"test_system": "lymphoblastoid leukemia cells", "settings": "5 nmol/L; cited from earlier work"}, "[6]": {"test_system": "cell lines of bone tumors", "settings": "in vitro; cited from earlier work"}, "[7]": {"test_system": "human melanoma cell lines", "settings": "some human melanoma cell lines; cited from earlier work"}, "neuroblastoma cell line": {"test_system": "neuroblastoma cell line", "settings": "cited from earlier work"}, "[8]": {"test_system": "granulocyte-macrophage colony forming units and erythrocyte burst forming units", "settings": "more immature progenitors (granulocyte-macrophage colony forming units and erythrocyte burst forming units); approximately; cited from earlier work"}, "[9]": {"test_system": "Mature erythroid colony forming units (mBFU-E)", "settings": "cited from earlier work"}, "[10]": {"test_system": "erythroid colony forming cells (CFU-E)", "settings": "cited from earlier work"}, "[11]": {"test_system": "T lymphocyte colony forming cells", "settings": "cited from earlier work"}, "Peripheral lymphocytes": {"test_system": "Peripheral lymphocytes", "settings": "cited from earlier work"}, "myeloid progenitor cell": {"test_system": "myeloid progenitor cell", "settings": "dose-dependent basis; cited from earlier work"}, "[12]": {"test_system": "Erythroid progenitor cells", "settings": "decreases as maturation state rises; cited from earlier work"}, "[13]": {"test_system": "dividing and non-dividing cells", "settings": "cited from earlier work"}, "[14]": {"settings": "H-9 proton; cited from earlier work"}}}
{"smiles": "Nc1nc(Cl)nc2c1ncn2[C@H]1C[C@H](O)[C@@H](CO)O1", "note": "[Cladribine, 2-chloro-2′-deoxyadenosine]", "values": [{"measurement": "IC50", "setting": "[1]", "value": 200, "unit": "nmol/L"}, {"measurement": "IC50", "setting": "DAUDI cell line", "value": 210, "unit": "nmol/L"}, {"measurement": "IC50", "setting": "[2]", "value": 34, "unit": "nmol/L"}, {"measurement": "IC50", "setting": "[3]", "value": 20, "unit": "nmol/L"}, {"measurement": "IC50", "setting": "[4]", "value": 39, "unit": "nmol/L"}, {"measurement": "IC50", "setting": "Hairy cell leukemia", "value": 31, "unit": "nmol/L"}, {"measurement": "IC50", "setting": "Multiple myeloma cells; Multiple myeloma, 50% growth inhibition, read-out: IC50 (nmol/L)**", "value": 1750, "unit": "nmol/L"}, {"measurement": "activity on multiple myeloma cells", "setting": "Multiple myeloma cells; in vitro", "value": "low activity"}, {"measurement": "IC50", "setting": "Non-Hodgkin's lymphoma", "value": 87, "unit": "nmol/L"}, {"measurement": "IC50", "setting": "T cells", "value": "3 to 338", "unit": "nmol/L"}, {"measurement": "IC50", "setting": "B cells", "value": "6 to 67", "unit": "nmol/L"}, {"measurement": "granulocyte and macrophage colony formation", "setting": "Normal bone marrow; 5 nmol/L, normal bone marrow", "value": "no effect"}, {"measurement": "IC50", "setting": "Normal bone marrow; Normal bone marrow, 50% growth inhibition, read-out: IC50 (nmol/L)**", "value": 15, "unit": "nmol/L"}, {"measurement": "IC50", "setting": "myeloid cells", "value": "5 to 70", "unit": "nM"}, {"measurement": "thymidine uptake", "setting": "[5]", "value": "inhibits"}, {"measurement": "activity on cell lines of bone tumors", "setting": "[6]", "value": "low activity"}, {"measurement": "IC37", "setting": "[7]", "value": "12 to 22", "unit": "nmol/L"}, {"measurement": "IC50", "setting": "neuroblastoma cell line", "value": 60, "unit": "nM"}, {"measurement": "IC50", "setting": "[8]", "value": "16 to 20", "unit": "nM"}, {"measurement": "IC50", "setting": "[9]", "value": 38, "unit": "nM"}, {"measurement": "IC50", "setting": "[10]", "value": 56, "unit": "nM"}, {"measurement": "concentration needed for a complete inhibition of lymphoid colony formation", "setting": "[11]; complete inhibition", "value": 1280, "unit": "nmol/L"}, {"measurement": "T lymphocyte colony forming cells", "setting": "[11]; dose-dependent basis", "value": "inhibits"}, {"measurement": "viability of peripheral lymphocytes", "setting": "Peripheral lymphocytes; 100 nmol/l during 24 hours, followed by washing", "value": "retain viability"}, {"measurement": "cells die", "setting": "Peripheral lymphocytes; seven-day incubation with 8 nmol/L", "value": 60, "unit": "%"}, {"measurement": "myeloid progenitor cell growth", "setting": "myeloid progenitor cell", "value": "inhibits"}, {"measurement": "sensitivity of erythroid progenitor cells", "setting": "[12]", "value": "dose-dependent sensitivity"}, {"measurement": "activity in dividing and non-dividing cells", "setting": "[13]", "value": "active"}]}
{"smiles": "Nc1ncnc2nc[nH]c12", "note": "[adenine]", "values": [{"measurement": "pKa", "setting": "[14]", "value": 9.80}]}
